In US4256753A, “4-(2-Pyridylamino)phenylacetic acid derivatives” (Dainippon Pharmaceutical Co., Ltd., priority 1978, dated 1981):
Read-outs that look alike come from different tables or passages of the source.

Columns and labels:
[1] = system: Carrageenin-induced hind paw edema; assay: Carrageenin-induced hind paw edema in rats (CAR method); type: in vivo; conditions: Rattus norvegicus, po, read-out: Anti-inflammatory ED50, CAR
Description: (a) Carrageenin-induced hind paw edema in rats (CAR method)
The test was carried out according to the method described in Proc. Soc. Exp. Biol. Med., 111, 544 (1962).

[2] = system: Acetic acid-induced vascular permeability; assay: Acetic acid-induced vascular permeability in mice (CAP method); type: in vivo; conditions: Mus musculus, po, read-out: Anti-inflammatory ED50, CAP
Description: (b) Acetic acid-induced vascular permeability in mice (CAP method)
The test was carried out according to the method described in Brit. J. Pharm. Chemother., 22, 246 (1964).

[3] = system: Phenylquinone-induced writhing; assay: Phenylquinone-induced writhing in mice (PQW method); type: in vivo; conditions: Mus musculus, po, read-out: Analgesic ED50, PQW
Description: (a) Phenylquinone-induced writhing in mice (PQW method)
The test was carried out according to the method described in Proc. Soc. Exp. Biol. Med., 95, 729 (1957).

[4] = system: Acetic acid-induced writhing; assay: Acetic acid-induced writhing in rats (ACWR method); type: in vivo; conditions: Rattus norvegicus, po, read-out: Analgesic ED50, ACWR
Description: (b) Acetic acid-induced writhing in rats (ACWR method)
The test was carried out according to the method described in Arzneim. Forsch., 25, 1505 (1975).

Anti-allergic activity = conditions: result in words, no test described
[5] = system: adjuvant-induced arthritis; assay: Prophylactic effect on adjuvant-induced arthritis in rats; type: in vivo, female rats of JCL:SD strain; conditions: for Arthritic incidence: 80 mg/kg/day p.o., days 0-20, vehicle control 100
in vivo = conditions: mouse, po
[6] = Gastrointestinal ulcerogenicity in fasted rats; conditions: rat, in vivo, po
Description: The test was carried out using fasted rats according to the method described in Arzneim.

[7] = mice, acetic acid-induced vascular permeability

| SMILES | ED50 [1] [mg/kg] | ED50 [2, 7] [mg/kg] | ED50 [3] [mg/kg] | ED50 [4] [mg/kg] | anti-allergic activity (Anti-allergic activity) | Arthritic incidence [5] [%] | Arthritic index mean ± S.E., 22nd day ([5]; rat, in vivo) | Arthritic index mean ± S.E., 28th day ([5]; rat, in vivo) | LD50 at 168 h (in vivo) [mg/kg] | TD50 [6] [mg/kg] | selectivity ratio ([6]; rats, p.o., UD50 divided by ED50 of CAR method, read-out: Safety index, ratio of UD50/ED50 (CAR method)) | ED50 [2] [mg/kg] |
| --- | --- | --- | --- | --- | --- | --- | --- | --- | --- | --- | --- | --- |
| CC(C(=O)O)c1ccc(Nc2ccccn2)c(Cl)c1 (centres unmarked) [B, 2-[3-Chloro-4-(2'-pyridylamino)phenyl]propionic acid] | 13.1 | 3.18 | 8.62 | 1.8 | – | – | – | – | – | – | – | – |
| CC(C(=O)O)c1ccc(Oc2ccccn2)cc1 (centres unmarked) [Compound 3, 2-[4-(2'-Pyridyloxy)phenyl]propionic acid] | 20 | 6.74 | 80 | 5.51 | – | – | – | – | – | – | – | – |
| CC(C(=O)O)c1ccc(N(C)c2ccccn2)cc1 (centres unmarked) [Compound 2, 2-[4-[N-Methyl-N-(2'-pyridyl)amino]phenyl]propionic acid] | 40 | > 20 | > 100 | 20 | – | – | – | – | – | – | – | – |
| CC(C(=O)O)c1ccc(Nc2ccccn2)cc1 (centres unmarked) [Compound A, 2-[4-(2'-Pyridylamino)phenyl]propionic acid] | 10 | 0.88 | 7.33 | 1.36 | shows an anti-allergic activity | 0 | 1.3 ± 0.8 | 1.3 ± 0.6 | 1910 | > 640 | > 64 | – |
| CC(C)Cc1ccc(C(C)C(=O)O)cc1 (centres unmarked) [Compound 1, 2-(4-isobutylphenyl)propionic acid, reference compound] | – | – | 50 | 9.43 | does not show such an activity | 85.7 | – | – | – | 125 | – | 7.11 |
